Test results taken from ChEMBL document CHEMBL1130264 (J Med Chem, 1997).
pEC50, pIC50, pKi: −log10 of the molar value.

Experiments:
[1] = molecular target: Neuronal acetylcholine receptor; assay: Compound was evaluated for functional potency and efficacy at rat Nicotinic acetylcholine receptor in PC12 cells (ganglionic); type: cell-based; details: pc-12
[2] = species: Rattus norvegicus; assay: Compound was evaluated for functional potencies and efficacies at rat nAChR subtype DA release; type: organism-based
[3] = molecular target: T1, Neuronal acetylcholine receptor; alpha4/beta2 (Rattus norvegicus, UniProt P09483+P12390); assay: Binding potency for Nicotinic acetylcholine receptor alpha4-beta2 (rat brain)
[4] = molecular target: T1, Neuronal acetylcholine receptor; alpha4/beta2; assay: Functional potency for Nicotinic acetylcholine receptor alpha4-beta2 (rat brain)
[5] = molecular target: T2, Neuronal acetylcholine receptor subunit alpha-7 (Homo sapiens, UniProt P36544); assay: Compound was evaluated for functional potencies and efficacies at human Nicotinic acetylcholine receptor alpha7
T2 sequence (P36544 whole entry): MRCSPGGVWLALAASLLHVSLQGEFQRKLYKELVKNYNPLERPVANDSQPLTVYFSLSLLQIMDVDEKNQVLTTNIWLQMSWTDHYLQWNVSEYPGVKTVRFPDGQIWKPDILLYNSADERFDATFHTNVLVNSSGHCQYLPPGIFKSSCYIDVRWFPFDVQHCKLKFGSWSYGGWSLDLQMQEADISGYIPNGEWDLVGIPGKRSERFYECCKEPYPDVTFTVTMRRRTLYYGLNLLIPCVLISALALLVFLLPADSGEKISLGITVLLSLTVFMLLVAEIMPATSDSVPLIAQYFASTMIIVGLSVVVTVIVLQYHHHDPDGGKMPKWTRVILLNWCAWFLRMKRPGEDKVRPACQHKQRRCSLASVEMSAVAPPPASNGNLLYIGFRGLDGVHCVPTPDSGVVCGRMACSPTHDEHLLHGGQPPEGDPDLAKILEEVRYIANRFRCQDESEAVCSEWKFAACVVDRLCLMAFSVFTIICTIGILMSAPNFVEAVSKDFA

[6] = molecular target: T1, Neuronal acetylcholine receptor; alpha4/beta2; assay: Compound was evaluated for functional potencies and efficacies at rat Nicotinic acetylcholine receptor alpha4-beta2; type: protein-complex assay
[7] = molecular target: T3, Neuronal acetylcholine receptor subunit alpha-7 (Rattus norvegicus, UniProt Q05941); assay: Binding potency for Nicotinic acetylcholine receptor alpha-7 (rat brain)
T3 sequence (Q05941 whole entry): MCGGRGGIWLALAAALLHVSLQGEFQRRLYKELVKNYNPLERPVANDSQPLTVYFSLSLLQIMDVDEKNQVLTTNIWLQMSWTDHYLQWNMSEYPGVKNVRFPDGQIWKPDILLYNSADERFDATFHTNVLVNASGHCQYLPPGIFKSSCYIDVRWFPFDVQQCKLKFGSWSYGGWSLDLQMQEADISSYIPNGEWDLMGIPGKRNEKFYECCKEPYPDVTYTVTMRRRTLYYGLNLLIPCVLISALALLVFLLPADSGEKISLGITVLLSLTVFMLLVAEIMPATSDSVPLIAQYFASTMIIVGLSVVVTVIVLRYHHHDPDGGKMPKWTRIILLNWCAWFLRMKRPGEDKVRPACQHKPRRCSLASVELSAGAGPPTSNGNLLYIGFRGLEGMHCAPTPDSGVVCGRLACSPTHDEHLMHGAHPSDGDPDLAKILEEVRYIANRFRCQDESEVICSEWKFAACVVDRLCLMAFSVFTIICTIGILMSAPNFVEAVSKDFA

[8] = molecular target: T3, Neuronal acetylcholine receptor subunit alpha-7; assay: Functional potency for Nicotinic acetylcholine receptor alpha-7 (rat brain)
[9] = molecular target: T4, Neuronal acetylcholine receptor; alpha4/beta2 (Homo sapiens, UniProt P17787+P43681); assay: Compound was evaluated for functional potencies and efficacies at human Nicotinic acetylcholine receptor alpha4-beta2; type: protein-complex assay
[10] = species: Rattus norvegicus; assay: compound was evaluated for functional potencies and efficacies at rat nAChR subtype DA release; type: organism-based
[11] = molecular target: Neuronal acetylcholine receptor; alpha3/beta4 (Homo sapiens, UniProt P30926+P32297); assay: Compound was evaluated for functional potencies and efficacies at human Nicotinic acetylcholine receptor subtype IMR-32 (ganglionic); type: protein-complex assay; details: for pEC50: read-out: EC50
Neuronal acetylcholine receptor; alpha3/beta4, sequence (P30926 whole entry): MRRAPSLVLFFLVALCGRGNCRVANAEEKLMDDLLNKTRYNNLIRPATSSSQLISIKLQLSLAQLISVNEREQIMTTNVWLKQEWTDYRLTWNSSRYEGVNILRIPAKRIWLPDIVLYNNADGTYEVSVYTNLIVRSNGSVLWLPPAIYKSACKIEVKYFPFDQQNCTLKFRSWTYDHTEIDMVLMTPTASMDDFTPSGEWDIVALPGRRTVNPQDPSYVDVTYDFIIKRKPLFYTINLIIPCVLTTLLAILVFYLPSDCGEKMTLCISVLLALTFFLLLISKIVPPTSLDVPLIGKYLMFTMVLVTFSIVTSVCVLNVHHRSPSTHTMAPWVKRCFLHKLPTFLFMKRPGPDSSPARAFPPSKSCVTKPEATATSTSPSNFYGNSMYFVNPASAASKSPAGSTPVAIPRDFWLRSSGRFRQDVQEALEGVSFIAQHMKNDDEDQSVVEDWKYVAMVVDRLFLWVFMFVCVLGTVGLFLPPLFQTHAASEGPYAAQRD
Neuronal acetylcholine receptor; alpha3/beta4, sequence (P32297 whole entry): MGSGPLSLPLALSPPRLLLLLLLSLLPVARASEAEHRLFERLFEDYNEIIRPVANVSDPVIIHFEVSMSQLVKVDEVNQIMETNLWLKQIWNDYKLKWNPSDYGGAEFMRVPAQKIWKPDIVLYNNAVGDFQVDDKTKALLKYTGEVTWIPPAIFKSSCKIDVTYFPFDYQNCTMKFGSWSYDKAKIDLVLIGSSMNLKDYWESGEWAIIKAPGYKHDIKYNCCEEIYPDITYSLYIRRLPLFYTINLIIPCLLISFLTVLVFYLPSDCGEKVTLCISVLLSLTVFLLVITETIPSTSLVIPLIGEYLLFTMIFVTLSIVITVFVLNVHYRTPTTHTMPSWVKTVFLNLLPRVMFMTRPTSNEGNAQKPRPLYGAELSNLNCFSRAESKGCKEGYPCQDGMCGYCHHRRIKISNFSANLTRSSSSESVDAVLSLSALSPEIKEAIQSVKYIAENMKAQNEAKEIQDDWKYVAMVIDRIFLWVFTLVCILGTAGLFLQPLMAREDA

[12] = molecular target: T5, Neuronal acetylcholine receptor (Rattus norvegicus) (UniProt P04757+P09483+P12389+P12390+P12392+P43144+Q9JLB5+P12391+P43143+P20420+Q05941); assay: compound was evaluated for functional potency and efficacy at rat Nicotinic acetylcholine receptor subtype DA release at 10 uM
[13] = molecular target: T5, Neuronal acetylcholine receptor (Rattus norvegicus); assay: Compound was evaluated for functional potency and efficacy at rat Nicotinic acetylcholine receptor subtype DA release at 1 uM
[14] = molecular target: T6, Acetylcholine receptor (Torpedo californica, UniProt P02710+P02712+P02714+P02718); assay: Binding potency for nAChR subtype Alpha-1-beta-1-delta gamma(torpedo); type: protein-complex assay
T6 sequence (P02710 whole entry): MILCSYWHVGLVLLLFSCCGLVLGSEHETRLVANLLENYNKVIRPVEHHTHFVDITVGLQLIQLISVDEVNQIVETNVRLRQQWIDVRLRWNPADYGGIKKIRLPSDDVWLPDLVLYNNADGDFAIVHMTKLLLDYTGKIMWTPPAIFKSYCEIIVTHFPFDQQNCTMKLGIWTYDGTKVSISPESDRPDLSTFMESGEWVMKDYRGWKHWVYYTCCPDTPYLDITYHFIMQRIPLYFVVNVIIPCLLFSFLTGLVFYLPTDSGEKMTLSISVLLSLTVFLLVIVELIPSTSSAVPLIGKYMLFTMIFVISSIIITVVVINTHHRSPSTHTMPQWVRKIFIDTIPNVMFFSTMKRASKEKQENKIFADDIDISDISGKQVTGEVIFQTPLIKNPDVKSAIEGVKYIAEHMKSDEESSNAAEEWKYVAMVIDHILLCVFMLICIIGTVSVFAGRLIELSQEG
T6 sequence (P02712 whole entry): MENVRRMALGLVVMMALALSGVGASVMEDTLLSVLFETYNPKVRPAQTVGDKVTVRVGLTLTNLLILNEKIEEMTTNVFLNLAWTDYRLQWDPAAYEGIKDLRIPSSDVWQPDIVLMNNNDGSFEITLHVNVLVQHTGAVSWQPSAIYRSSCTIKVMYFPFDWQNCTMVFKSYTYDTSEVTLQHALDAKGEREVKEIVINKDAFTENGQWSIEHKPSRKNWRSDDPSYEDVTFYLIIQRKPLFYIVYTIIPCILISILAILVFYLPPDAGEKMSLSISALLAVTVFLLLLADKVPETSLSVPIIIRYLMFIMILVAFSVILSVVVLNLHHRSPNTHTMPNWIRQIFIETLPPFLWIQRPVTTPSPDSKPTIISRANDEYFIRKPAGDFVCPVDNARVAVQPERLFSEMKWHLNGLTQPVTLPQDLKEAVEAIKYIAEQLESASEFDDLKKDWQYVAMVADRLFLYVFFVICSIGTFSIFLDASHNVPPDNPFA
T6 sequence (P02718 whole entry): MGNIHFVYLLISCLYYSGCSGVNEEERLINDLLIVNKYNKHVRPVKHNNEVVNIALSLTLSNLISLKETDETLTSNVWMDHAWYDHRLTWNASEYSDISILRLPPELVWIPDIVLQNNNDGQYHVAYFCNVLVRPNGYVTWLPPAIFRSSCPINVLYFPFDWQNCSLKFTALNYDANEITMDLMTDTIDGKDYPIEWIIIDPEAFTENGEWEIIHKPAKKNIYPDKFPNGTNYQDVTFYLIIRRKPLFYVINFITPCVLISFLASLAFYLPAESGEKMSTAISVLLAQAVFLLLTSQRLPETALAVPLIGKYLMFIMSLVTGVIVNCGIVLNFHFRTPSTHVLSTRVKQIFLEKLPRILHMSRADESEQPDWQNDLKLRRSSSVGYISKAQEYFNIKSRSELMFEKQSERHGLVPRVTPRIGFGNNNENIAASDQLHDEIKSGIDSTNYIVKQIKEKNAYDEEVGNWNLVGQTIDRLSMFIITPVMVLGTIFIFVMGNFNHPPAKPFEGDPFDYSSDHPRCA
T6 sequence (P02714 whole entry): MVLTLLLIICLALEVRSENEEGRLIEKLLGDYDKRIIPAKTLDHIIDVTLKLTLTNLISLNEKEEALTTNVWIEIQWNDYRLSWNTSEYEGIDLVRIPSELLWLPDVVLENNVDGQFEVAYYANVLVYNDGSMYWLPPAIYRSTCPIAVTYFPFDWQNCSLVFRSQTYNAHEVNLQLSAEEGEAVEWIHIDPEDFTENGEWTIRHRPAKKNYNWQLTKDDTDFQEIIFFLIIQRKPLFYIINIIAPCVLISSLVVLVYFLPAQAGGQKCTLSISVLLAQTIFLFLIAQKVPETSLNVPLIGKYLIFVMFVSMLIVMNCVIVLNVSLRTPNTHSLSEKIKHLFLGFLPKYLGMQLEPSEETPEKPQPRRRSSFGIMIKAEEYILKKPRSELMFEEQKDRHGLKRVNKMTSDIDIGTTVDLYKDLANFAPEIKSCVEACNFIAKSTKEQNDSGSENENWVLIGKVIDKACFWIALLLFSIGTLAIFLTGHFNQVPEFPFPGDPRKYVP

[15] = molecular target: T6, Acetylcholine receptor; assay: Functional potency for nAChR subtype Alpha1-beta1 delta gamma (torpedo); type: protein-complex assay
[16] = molecular target: Neuronal acetylcholine receptor; assay: Compound was evaluated for functional potencies and efficacies at rat Nicotinic acetylcholine receptor subtype PC12 (ganglionic); type: cell-based; details: pc-12
[17] = molecular target: T4, Neuronal acetylcholine receptor; alpha4/beta2; assay: Compound was evaluated for functional potencies and efficacies at human Nicotinic acetylcholine receptor alpha4-beta2; low efficacy; type: protein-complex assay
[18] = molecular target: T2, Neuronal acetylcholine receptor subunit alpha-7; assay: Compound was evaluated for functional potencies and efficacies at human Nicotinic acetylcholine receptor alpha7; low efficacy
[19] = molecular target: T1, Neuronal acetylcholine receptor; alpha4/beta2; assay: Compound was evaluated for functional potencies and efficacies at rat Recombinant Nicotinic acetylcholine receptor alpha4-beta2; low efficacy; type: protein-complex assay
[20] = molecular target: T2, Neuronal acetylcholine receptor subunit alpha-7; assay: Ability to block activation of acetylcholine-stimulated currents in human alpha-7 homomers expressed in oocytes; type: functional, cell-based, Oocyte
[21] = molecular target: Muscle-type nicotinic acetylcholine receptor; assay: Compound was evaluated for functional potencies and efficacies at human muscle type Nicotinic acetylcholine receptor in TE671 cells; type: cell-based; details: te-671
[22] = molecular target: T6, Acetylcholine receptor
[23] = molecular target: T6, Acetylcholine receptor; remark: listed apart in the source
[24] = molecular target: T2, Neuronal acetylcholine receptor subunit alpha-7; assay: (§1) Affinity for Nicotinic acetylcholine receptor alpha7
[25] = molecular target: T3, Neuronal acetylcholine receptor subunit alpha-7; assay: as §1
[26] = tested on: TE-671; assay: Stimulation of ion flux in TE671 cells; type: functional, cell-based; details: Homo sapiens

CC(=O)C1=CC[N+](C)(C)CC1
pEC50 [1]: 4.00

CO[C@@H]1CC=C2CCN3CCC4=C(CC(=O)OC4)[C@@]23C1
pEC50 [2]: 7.52 | pKi [3]: 10.40 | pEC50 [4]: 6.15 | pEC50 [5]: 4.71 | pEC50 [6]: 6.43 | pKi [7]: 6.83 | pEC50 [8]: 5.05

c1cncc(OC[C@@H]2CCN2)c1
pEC50 [9]: 6.15 | pEC50 [10]: 8.52 | pEC50 [5]: 5.05 | pEC50 [11]: 6.15

CN1CCC[C@H]1COc1cccnc1
Potency [12]: 90% | Potency [13]: 55%

Clc1ccc(C2CC3CCC2N3)cn1 (racemic) [EPIBATIDINE]
pEC50 [2]: 7.43 | pEC50 [5]: 5.46

Cc1cc([C@@H]2CCCN2C)on1 [ABT-418]
pEC50 [2]: 6.42 | pKi [3]: 8.10 | pEC50 [4]: 5.00 | pKi [14]: < 5.00 | pEC50 [5]: 3.58 | pEC50 [11]: 4.19 | pEC50 [6]: 5.22 | pEC50 [15]: 3.39 | pKi [7]: < 5.00 | pEC50 [8]: 3.58

O=c1cccc2n1C[C@@H]1CNC[C@H]2C1 [CYTISINICLINE]
pEC50 [2]: 7.22 | pEC50 [9]: 4.42 | pEC50 [5]: 4.15 | pEC50 [16]: 5.00 | pEC50 [11]: 4.59

C[N+]1(C)CCN(c2ccccc2)CC1 [DIMETHYLPHENYLPIPERAZINIUM]
pEC50 [2]: 5.37 | pEC50 [9]: 5.60 | pEC50 [5]: 4.02

COc1ccc(/C=C2\CCCN=C2c2cccnc2)c(OC)c1 [GTS-21]
pEC50 [2]: 5.00 | EC50 [17]: Low efficacy | EC50 [18]: Low efficacy | EC50 [19]: Low efficacy | EC50 [11]: Low efficacy

CNC1(C)C2CCC(C2)C1(C)C (centres undefined) [MECAMYLAMINE]
pIC50 [20]: 5.74 | pEC50 [21]: 4.52

CN1CCC[C@H]1c1cccnc1 [NICOTINE]
pEC50 [2]: 7.40 | pKi [22]: < 5.00 | pEC50 [23]: 4.22

Cc1ncccc1OC[C@@H]1CCCN1 [POZANICLINE]
pEC50 [2]: 5.96 | EC50 [17]: Low efficacy | EC50 [18]: Low efficacy | pKi [24]: < 5.00 | EC50 [11]: Low efficacy

CNCC/C=C/c1cccnc1 [RIVANICLINE]
pEC50 [2]: 6.03 | pEC50 [9]: 5.37 | pKi [25]: 4.44 | pEC50 [11]: 4.34

C[N+](C)(C)CCOC(=O)CCC(=O)OCC[N+](C)(C)C [SUXAMETHONIUM]
pEC50 [26]: 4.52
